We go through two compounds from patent US20130089570A1, “ORAL VACCINE CO[…] ANTIGEN AND A TOLL-LIKE RECEPTOR AGONIST” (Glaxo Smith Kline Biologicals S.A., priority 2010, published 2013).

Like-named read-outs stand apart in the source and are kept apart here. Marks after values point to notes of the source that are not given here.

The subject of the assay is A/Solomon Island virus (A/SI/3/2006). In kind it is in vivo, BALB/c mice. The note with it: for IgA concentration in mucosal samples GeoMean, BAL / IgA concentration in mucosal samples GeoMean, Feces / IgA concentration in mucosal samples GeoMean, Nasal Wash / IgA concentration in mucosal samples GeoMean, Saliva / IgA concentration in mucosal samples GeoMean, Vaginal Wash: days 0 and 14, two weeks after second immunization.

[1] abbreviates: Table 2 study, A/SI/3/2006 7.5 μg, adjuvant 1 μg.
[2] abbreviates: Table 1 study, dose of Ag 14 μg.

For Flagellin, under setting [1], the “IgA concentration in mucosal samples GeoMean, BAL” value (from here on “IgA concentration … BAL”) worked out at 4.04 ng/mL; the “IgA concentration in mucosal samples GeoMean, Feces” value (“IgA concentration … Feces” for short) came to 14.56 ng/mL; the “IgA concentration in mucosal samples GeoMean, Nasal Wash” value (shortened to “IgA concentration … Nasal Wash”) is listed as 4.00 ng/mL; the “IgA concentration in mucosal samples GeoMean, Saliva” value (“IgA concentration … Saliva” for short) came to 2.69 ng/mL. In addition, the “IgA concentration in mucosal samples GeoMean, Vaginal Wash” value (“IgA concentration … Vaginal Wash” below) under setting [1] is reported as 9.93** ng/mL. Also, the “IgA BAL levels compared to IM immunization” value (Table 2 study, Kruskal Wallis and Dunn's multiple comparison test) is recorded as “significantly higher”. Moreover, the “IgA response in vaginal wash by adjuvantation” value (Table 2 study, vaginal wash) is “highly increased the IgA response”.
As to `CCCCCCCCCCC[C@H](CC(=O)N[C@H]1[C@H](OC[C@H](NC(=O)C[C@@H](CCCCCCCCCCC)OC(=O)CCCCCCCCC)C(=O)O)O[C@H](CO)[C@@H](OP(=O)(O)O)[C@@H]1OC(=O)C[C@@H](CCCCCCCCCCC)OC(=O)CCCCCCCCC)OC(=O)CCCCCCCCC` [CRX527], under “Table 1 study, dose of Ag 7 μg”, the “IgA concentration … BAL” value is 7.43*** ng/mL; the “IgA concentration … Feces” value is given as 48.40*** ng/mL; the “IgA concentration … Nasal Wash” value is listed as 11.88* ng/mL; the “IgA concentration … Saliva” value was found to be 7.53 ng/mL. The “IgA concentration … Vaginal Wash” value (Table 1 study, dose of Ag 7 μg) is 81.01*** ng/mL. Under setting [2], the “IgA concentration … BAL” value worked out at 3.67 ng/mL; the “IgA concentration … Feces” value is on record as 75.71*** ng/mL; the “IgA concentration … Nasal Wash” value is 8.22 ng/mL; the “IgA concentration … Saliva” value is on record as 5.13 ng/mL. Moreover, the “IgA concentration … Vaginal Wash” value under setting [2] is reported as 120.80*** ng/mL. Also, under setting [1], the “IgA concentration … BAL” value was 3.47 ng/mL; the “IgA concentration … Feces” value is on record as 8.68 ng/mL; the “IgA concentration … Nasal Wash” value turned out to be 3.50 ng/mL; the “IgA concentration … Saliva” value came to 3.22 ng/mL. The “IgA concentration … Vaginal Wash” value under setting [1] turned out to be 7.05 ng/mL.
